Results published in ChEMBL document CHEMBL4304777 (Eur J Med Chem, 2019).
Blank lines part the entries; values can stand above or below the compound they belong to.

Columns and labels:
OVCAR-8 = assay: Cytotoxicity against human OVCAR8 cells assessed as reduction in cell viability incubated for 72 hrs by SRB assay; format: functional, cell-based; settings: OVCAR-8, 72 h
HCT-116 [1] = assay: Cytotoxicity against human HCT116 cells assessed as reduction in cell viability incubated for 72 hrs by SRB assay; format: functional, cell-based; settings: HCT-116, 72 h
[2] = biological target: RAC-alpha serine/threonine-protein kinase (Homo sapiens, UniProt P31749); assay: Inhibition of Akt1 (unknown origin) expressed in Escherichia coli using peptide as substrate incubated for 1 hr by HTRF assay
MM1.S [3] = assay: Antiproliferative activity against human MM1S cells assessed as reduction in cell viability; format: functional, cell-based
HuT78 = assay: Antiproliferative activity against human HUT78 cells assessed as reduction in cell viability; format: functional, cell-based
HCT-116 [4] = assay: Induction of apoptosis in human HCT116 cells assessed as apoptotic cells at 10 uM incubated for 72 hrs by annexin V - FITC and propidium iodide staining based flow cytometry (reference value: 6.99 %); format: functional
RPMI-8226 = assay: Antiproliferative activity against human RPMI8226 cells assessed as reduction in cell viability; format: functional, cell-based
MOLT-4 = assay: Antiproliferative activity against human MOLT4 cells assessed as reduction in cell viability; format: functional, cell-based
HCT-116 [5] = assay: Induction of apoptosis in human HCT116 cells assessed as apoptotic cells at 2 uM incubated for 72 hrs by annexin V - FITC and propidium iodide staining based flow cytometry (reference value: 6.99 %); format: functional
MV4-11 = assay: Antiproliferative activity against human MV4-11 cells assessed as reduction in cell viability; format: functional, cell-based
[6] = Antiproliferative activity against human CEM/C1 cells assessed as reduction in cell viability; format: functional, cell-based
HCT-116 [7] = assay: Induction of apoptosis in human HCT116 cells assessed as apoptotic cells at 0.4 uM incubated for 72 hrs by annexin V - FITC and propidium iodide staining based flow cytometry (reference value: 6.99 %); format: functional
K562 = assay: Antiproliferative activity against human K562 cells assessed as reduction in cell viability; format: functional, cell-based
JVM-2 = assay: Antiproliferative activity against human JVM2 cells assessed as reduction in cell viability; format: functional, cell-based
U-937 = assay: Antiproliferative activity against human U937 cells assessed as reduction in cell viability; format: functional, cell-based
[8] = Stability in rat plasma assessed as remaining compound at 100 ug/ml incubated for 1.5 hrs by LC-MS analysis; format: ADME, cell-free; settings: read-out: Stability
[9] = AUC (0 to infinity) in Sprague-Dawley rat at 10 mg/kg, po measured up 48 hrs by LC-MS/MS analysis; format: ADME, organism-based; set-up: dose 10 mg/kg, time infinity, route oral; settings: in vivo
[10] = Oral bioavailability in Sprague-Dawley rat at 10 mg/kg, measured up 48 hrs by LC-MS/MS analysis; format: ADME, organism-based; settings: in vivo
[11] = Stability in dog liver microsomes assessed as remaining compound at 100 ug/ml incubated for 1.5 hrs by LC-MS analysis; format: ADME, Canis lupus familiaris, Microsome; settings: read-out: Stability
[12] = Cmax in Sprague-Dawley rat at 2 mg/kg, iv measured up 48 hrs by LC-MS/MS analysis; format: ADME, organism-based; set-up: dose 2 mg/kg, route intravenous; settings: in vivo
[13] = Half life in Sprague-Dawley rat at 10 mg/kg, po measured up 48 hrs by LC-MS/MS analysis; format: ADME, organism-based; settings: in vivo
MM1.S [14] = assay: Antitumor activity against human MM1S cells xenografted in BALB/c mouse assessed as tumor growth inhibition at 15 mg/kg, po administered for 14 days; format: functional; settings: 336 h, read-out: TGI
[15] = Antiproliferative activity against human Mino cells assessed as reduction in cell viability; format: functional, cell-based
[16] = Stability in mouse liver microsomes assessed as remaining compound at 100 ug/ml incubated for 1.5 hrs by LC-MS analysis; format: ADME, Microsome; settings: read-out: Stability
[17] = AUC (0 to t) in Sprague-Dawley rat at 2 mg/kg, iv measured up 48 hrs by LC-MS/MS analysis; format: ADME, organism-based; settings: in vivo
CCRF-CEM = assay: Antiproliferative activity against human CCRF-CEM cells assessed as reduction in cell viability; format: functional, cell-based
[18] = Toxicity in BALB/c mouse xenografted with human MM1S cells assessed as body weight loss at 15 to 30 mg/kg, po administered once daily for 14 days; format: organism-based; settings: in vivo, 336 h
[19] = Tmax in Sprague-Dawley rat at 2 mg/kg, iv measured up 48 hrs by LC-MS/MS analysis; format: ADME, organism-based; settings: in vivo
[20] = Stability in human liver microsomes assessed as remaining compound at 100 ug/ml incubated for 1.5 hrs by LC-MS analysis; format: ADME, Microsome; settings: read-out: Stability
[21] = Stability in rat liver microsomes assessed as remaining compound at 100 ug/ml incubated for 1.5 hrs by LC-MS analysis; format: ADME, Microsome; settings: read-out: Stability
hERG (KCNH2) = hERG (KCNH2) (Homo sapiens, UniProt Q12809); assay: Inhibition of human ERG expressed in HEK293 cells at 3 uM at - 40 mV holding potential by whole cell patch clamp assay relative to control; format: cell-based; settings: HEK293 cells expressing human ERG
[22] = Tmax in Sprague-Dawley rat at 10 mg/kg, po measured up 48 hrs by LC-MS/MS analysis; format: ADME, organism-based; settings: in vivo
MM1.S [23] = assay: Antitumor activity against human MM1S cells xenografted in BALB/c mouse assessed as tumor growth inhibition at 30 mg/kg, po administered for 14 days; format: functional; settings: 336 h, read-out: TGI
[24] = Half life in Sprague-Dawley rat at 2 mg/kg, iv measured up 48 hrs by LC-MS/MS analysis; format: ADME, organism-based; settings: in vivo
[25] = Cmax in Sprague-Dawley rat at 10 mg/kg, po measured up 48 hrs by LC-MS/MS analysis; format: ADME, organism-based; set-up: dose 10 mg/kg, route oral; settings: in vivo
[26] = Stability in human plasma assessed as remaining compound at 100 ug/ml incubated for 1.5 hrs by LC-MS analysis; format: ADME, cell-free; settings: read-out: Stability
[27] = AUC (0 to t) in Sprague-Dawley rat at 10 mg/kg, po measured up 48 hrs by LC-MS/MS analysis; format: ADME, organism-based; settings: in vivo
[28] = AUC (0 to infinity) in Sprague-Dawley rat at 2 mg/kg, iv measured up 48 hrs by LC-MS/MS analysis; format: ADME, organism-based; set-up: dose 2 mg/kg, time infinity, route intravenous; settings: in vivo

RAC-alpha serine/threonine-protein kinase, sequence (P31749 whole entry): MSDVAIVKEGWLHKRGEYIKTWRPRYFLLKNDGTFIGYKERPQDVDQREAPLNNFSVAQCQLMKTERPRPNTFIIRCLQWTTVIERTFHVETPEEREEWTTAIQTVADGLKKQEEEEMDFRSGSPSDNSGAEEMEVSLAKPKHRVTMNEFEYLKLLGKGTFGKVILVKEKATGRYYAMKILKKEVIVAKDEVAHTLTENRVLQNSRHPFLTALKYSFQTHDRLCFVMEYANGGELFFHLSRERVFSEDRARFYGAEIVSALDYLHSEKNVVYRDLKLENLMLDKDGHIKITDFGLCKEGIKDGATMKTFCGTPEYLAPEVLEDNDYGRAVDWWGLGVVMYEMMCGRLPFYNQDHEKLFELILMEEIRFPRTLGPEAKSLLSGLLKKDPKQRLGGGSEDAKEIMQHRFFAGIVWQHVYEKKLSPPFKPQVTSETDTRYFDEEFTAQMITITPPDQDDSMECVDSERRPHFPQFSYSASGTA
hERG (KCNH2), sequence (Q12809 whole entry): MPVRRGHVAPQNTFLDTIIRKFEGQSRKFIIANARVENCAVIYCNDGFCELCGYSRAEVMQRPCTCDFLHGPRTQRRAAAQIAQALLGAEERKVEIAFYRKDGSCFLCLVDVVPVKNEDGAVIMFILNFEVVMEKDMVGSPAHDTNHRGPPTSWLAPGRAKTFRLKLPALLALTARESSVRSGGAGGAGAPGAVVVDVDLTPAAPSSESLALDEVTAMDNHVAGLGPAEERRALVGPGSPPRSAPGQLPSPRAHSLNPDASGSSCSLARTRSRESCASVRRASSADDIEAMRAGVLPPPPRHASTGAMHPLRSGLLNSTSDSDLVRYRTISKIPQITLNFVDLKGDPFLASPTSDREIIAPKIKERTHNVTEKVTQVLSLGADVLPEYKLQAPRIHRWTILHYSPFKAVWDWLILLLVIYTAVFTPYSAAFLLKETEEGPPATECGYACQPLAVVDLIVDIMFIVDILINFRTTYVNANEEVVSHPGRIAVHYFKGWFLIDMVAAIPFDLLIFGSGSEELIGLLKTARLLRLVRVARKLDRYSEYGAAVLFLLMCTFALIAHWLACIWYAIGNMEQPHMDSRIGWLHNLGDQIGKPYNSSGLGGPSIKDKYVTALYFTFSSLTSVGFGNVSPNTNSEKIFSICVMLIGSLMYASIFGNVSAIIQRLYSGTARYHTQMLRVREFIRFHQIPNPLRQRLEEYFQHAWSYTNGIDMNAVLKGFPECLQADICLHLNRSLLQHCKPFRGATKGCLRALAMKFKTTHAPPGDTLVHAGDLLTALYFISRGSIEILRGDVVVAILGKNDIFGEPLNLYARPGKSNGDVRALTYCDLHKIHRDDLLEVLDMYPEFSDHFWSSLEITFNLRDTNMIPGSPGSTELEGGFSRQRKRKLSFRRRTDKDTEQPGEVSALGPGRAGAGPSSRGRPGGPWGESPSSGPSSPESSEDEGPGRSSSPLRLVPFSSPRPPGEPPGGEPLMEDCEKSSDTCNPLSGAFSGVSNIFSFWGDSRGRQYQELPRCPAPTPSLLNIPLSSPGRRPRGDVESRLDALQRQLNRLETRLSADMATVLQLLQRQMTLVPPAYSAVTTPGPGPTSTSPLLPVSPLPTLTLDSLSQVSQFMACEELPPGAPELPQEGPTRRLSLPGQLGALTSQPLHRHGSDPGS

SMILES: Cn1ncc(-c2ccccc2)c1-c1ccc(C(=O)N[C@@H]2CNCC[C@H]2c2cccc(F)c2)s1
- IC50 (OVCAR-8): 2510 nM
- IC50 (HCT-116 [1]): 4420 nM
- IC50 [2]: 70.4 nM

SMILES: Cc1cnn(C)c1-c1ccc(C(=O)N[C@@H]2CNCC[C@H]2c2cccc(F)c2)s1
- IC50 (OVCAR-8): 1740 nM
- IC50 (HCT-116 [1]): 1780 nM
- IC50 [2]: 9 nM

SMILES: Cn1ncc(Br)c1-c1ccc(C(=O)N[C@@H]2CNCC[C@H]2c2cccc(F)c2)s1
- IC50 (HCT-116 [1]): 890 nM
- IC50 [2]: 5.46 nM

SMILES: Cn1ncc(Cl)c1-c1csc(C(=O)N[C@@H]2CNCC[C@H]2c2ccc(Cl)c(C(F)(F)F)c2)c1
- IC50 (OVCAR-8): 580 nM
- IC50 (HCT-116 [1]): 1850 nM
- IC50 [2]: 35.3 nM

SMILES: CCc1cnn(C)c1-c1ccc(C(=O)N[C@@H]2CNCC[C@H]2c2cccc(F)c2)s1
- IC50 (OVCAR-8): 2700 nM
- IC50 (HCT-116 [1]): 2830 nM
- IC50 [2]: 48.9 nM

SMILES: Cn1ncc(C(=O)O)c1-c1ccc(C(=O)N[C@@H]2CNCC[C@H]2c2cccc(F)c2)s1
- IC50 (OVCAR-8): > 50000 nM
- IC50 (HCT-116 [1]): > 50000 nM
- IC50 [2]: 101 nM

SMILES: Cn1ncc(CO)c1-c1ccc(C(=O)N[C@@H]2CNCC[C@H]2c2cccc(F)c2)s1
- IC50 (OVCAR-8): 7170 nM
- IC50 (HCT-116 [1]): 7420 nM
- IC50 [2]: 62.2 nM

SMILES: Cn1ncc(Cl)c1-c1ccc(C(=O)N[C@@H]2CNCC[C@H]2c2ccc(Cl)c(C(F)(F)F)c2)s1
- IC50 (OVCAR-8): 640 nM
- IC50 (HCT-116 [1]): 1410 nM
- IC50 [2]: 65.2 nM

SMILES: Cl.Cn1ncc(Cl)c1-c1csc(C(=O)N[C@@H]2CNCC[C@H]2c2cccc(F)c2)c1
- IC50 (MM1.S [3]): 2 nM
- Activity (HCT-116 [4]): 24.58%
- remaining at 1.5 h, 100 ug/ml [8]: > 99%
- AUC(0-inf) [9]: 3940 ng·h/mL
- bioavailability [10]: 52%
- remaining at 1.5 h, 100 ug/ml [11]: 81.3%
- Cmax [12]: 1440 ng/mL
- half-life [13]: 4.74 h
- IC50 (RPMI-8226): 49 nM
- IC50 (MOLT-4): 14 nM
- inhibition in vivo at 15 mg/kg (MM1.S [14]): 40.7%
- Activity (HCT-116 [5]): 8.69%
- IC50 [15]: 531 nM
- IC50 (MV4-11): 441 nM
- IC50 [6]: 7 nM
- remaining at 1.5 h, 100 ug/ml [16]: 82.7%
- AUC(0-t) at 48 h [17]: 1480 ng·h/mL
- IC50 (CCRF-CEM): 8 nM
- Activity [18]: Toxic
- IC50 (HCT-116 [1]): 950 nM
- Tmax [19]: 4.98 min
- Activity (HCT-116 [7]): 7.73%
- remaining at 1.5 h, 100 ug/ml [20]: 88.3%
- remaining at 1.5 h, 100 ug/ml [21]: 63.7%
- inhibition at 3 µM (hERG (KCNH2)): 40%
- IC50 [2]: 1.26 nM
- Tmax [22]: 2.75 h
- inhibition in vivo at 30 mg/kg (MM1.S [23]): 42.1%
- half-life [24]: 3.52 h
- IC50 (K562): > 3000 nM
- Cmax [25]: 423 ng/mL
- remaining at 1.5 h, 100 ug/ml [26]: > 99%
- AUC(0-t) at 48 h [27]: 3890 ng·h/mL
- AUC(0-inf) [28]: 1510 ng·h/mL
- IC50 (U-937): 188 nM

SMILES: Cn1ncc(Cl)c1-c1cc(C(=O)N[C@H](CN)Cc2ccc(F)c(F)c2)oc1Cl [UPROSERTIB]
- IC50 (MM1.S [3]): 32 nM
- IC50 (HuT78): 378 nM
- IC50 (RPMI-8226): 538 nM
- IC50 (MOLT-4): 66 nM
- IC50 (MV4-11): 635 nM
- IC50 [6]: 30 nM
- IC50 (OVCAR-8): 540 nM
- IC50 (HCT-116 [1]): 1750 nM
- inhibition in vivo at 30 mg/kg (MM1.S [23]): 36.8%
- IC50 (K562): > 3000 nM
- IC50 (JVM-2): 293 nM
- IC50 (U-937): 101 nM

SMILES: C=Cc1cnn(C)c1-c1ccc(C(=O)N[C@@H]2CNCC[C@H]2c2cccc(F)c2)s1
- IC50 (OVCAR-8): 3190 nM
- IC50 (HCT-116 [1]): 6850 nM
- IC50 [2]: 46.9 nM

SMILES: Cn1ncc(-c2ccncc2)c1-c1ccc(C(=O)N[C@@H]2CNCC[C@H]2c2cccc(F)c2)s1
- IC50 (OVCAR-8): 28000 nM
- IC50 (HCT-116 [1]): 24000 nM
- IC50 [2]: 99.9 nM

Second part, led by results:

- IC50 [2]: 1.8 nM
SMILES: Cn1ncc(Cl)c1-c1ccc(C(=O)N[C@@H]2CNCC[C@H]2c2ccc(Cl)cc2)s1
- IC50 (OVCAR-8): 1470 nM
- IC50 (HCT-116 [1]): 3020 nM

- IC50 [2]: 10.2 nM
SMILES: Cn1nccc1-c1ccc(C(=O)N[C@@H]2CNCC[C@H]2c2ccc(Cl)cc2)s1
- IC50 (OVCAR-8): 1390 nM
- IC50 (HCT-116 [1]): 8870 nM

- IC50 [2]: 13.7 nM
SMILES: Cn1ncc(Cl)c1-c1csc(C(=O)N[C@@H]2CNCC[C@H]2c2ccc(Cl)cc2)c1
- IC50 (OVCAR-8): 5690 nM
- IC50 (HCT-116 [1]): 1210 nM

- IC50 [2]: 10.6 nM
SMILES: Cn1nccc1-c1ccc(C(=O)N[C@@H]2CNCC[C@H]2c2cccc(F)c2)s1
- IC50 (OVCAR-8): 1590 nM
- IC50 (HCT-116 [1]): 1370 nM

- IC50 (MM1.S [3]): 21 nM
- IC50 (RPMI-8226): 263 nM
- IC50 (MOLT-4): 50 nM
- IC50 (MV4-11): 135 nM
- IC50 (K562): > 3000 nM
- IC50 (U-937): 78 nM
SMILES: Cl.Cn1ncc(Cl)c1-c1ccc(C(=O)N[C@@H]2CNCC[C@H]2c2cccc(F)c2)s1
- IC50 (HuT78): 298 nM
- Activity (HCT-116 [4]): 89.62%
- Activity (HCT-116 [5]): 22.68%
- IC50 [6]: 28 nM
- IC50 (OVCAR-8): 230 nM
- IC50 (HCT-116 [1]): 440 nM
- Activity (HCT-116 [7]): 11.66%
- IC50 (JVM-2): 208 nM
